In a melting point compilation (Tetko et al.; mined from patent text by program, amines drawn as free bases though some values may be those of a salt):

Row | melting point | Structure (SMILES)
1 | 201 to 202 °C | NC(=O)c1sc2ccc(Br)cc2c1-c1ccccc1
2 | 138 to 140 °C | C[C@H]1CC[C@H]2C(C)(C)[C@@H](O)CC[C@]23Oc2c(c(OCc4ccccc4)cc4c2CN(C(=O)OC(C)(C)C)C4=O)C[C@]13C
3 | 161 to 162 °C | CCC(Oc1cc(OC)ccc1C(=O)c1ccc(OCc2nc(-c3ccccc3)oc2C)cc1)C(=O)O (stereo unspecified)
4 | 128 to 130 °C | CC(C)Cc1nc2ccc(C#N)cc2c(-c2ccccc2)c1CN
5 | 140 to 141 °C | CC(C)[Si](Oc1ccc([C@@H](O)[C@@H](C)N2CCC(O)(c3ccccc3)CC2)cc1F)(C(C)C)C(C)C (relative stereo)
6 | 113 to 121 °C | COc1ccc(NS(=O)(=O)c2ccc(N3CCC(NC[C@H](O)COc4ccc(OCc5ccccc5)cc4)CC3)cc2)cc1OC
7 | 223 °C | Cc1ccc(C2(c3ccccc3)OCc3c2cnc(C)c3OCC(=O)O)cc1 (stereo unspecified)
8 | 200 to 204 °C | N#CCc1c[nH]c2ccc(NC(N)=O)cc12
9 | 94 to 97 °C | O=C(O)c1cccc(NC(=O)C(CS)Cc2cccnc2)c1 (stereo unspecified)
10 | 66 to 68 °C | CCOC(=O)C(CC#N)(C(=O)OCC)c1ccc([N+](=O)[O-])cn1
11 | 135 to 137 °C | CCCCCCC1OC(=O)c2cc(NC(C)=O)ccc21 (stereo unspecified)
12 | > 300 °C | O=C1C=c2c(c3c4ccccc4oc3c3[nH]c4ccccc4c23)=N1
13 | 147 °C | CCC(C)(C)c1ccc(S(=O)(=O)N2C(=O)C(NCCN3CCOCC3)(c3ccccc3Cl)c3cc(Cl)ccc32)cc1 (stereo unspecified)
14 | 171 to 172 °C | CCOC(=O)C1=C(N)NC(c2ccccc2)=CC1c1cccc([N+](=O)[O-])c1 (stereo unspecified)
15 | 187 °C | O=C(CCC(F)(F)F)Nc1ccccc1
16 | 299 to 301 °C | Cc1c(C(=O)O)oc2c(c1=O)CSc1ccccc1-2
17 | 238 to 240 °C | CC(C)(CC(=O)c1ccc2c(c1)CC(N1C(=O)c3ccccc3C1=O)C2)C(=O)O (stereo unspecified)
18 | 56 to 59 °C | CCCOC(=O)C(=O)Nc1ccccn1
19 | 157 to 159 °C | CN(Cc1sc2c(=O)c(C(=O)NCc3ccc(Cl)cc3)cn(C)c2c1COCC[Si](C)(C)C)CC(O)c1cc2ccccc2o1 (stereo unspecified)

Row | melting point | Structure (SMILES)
20 | 61 to 64 °C | CCOC(=O)c1cnc2ccc(OCC)nc2c1Cl
21 | 205 to 208 °C | COC(=O)c1oc2ccc(Cl)cc2c1-c1ccccc1C(F)(F)F
22 | 91 °C | O=S(=O)(c1ccccc1F)N1CCCC1c1ccc(F)cc1 (racemic)
23 | 100 to 101 °C | CCOC(=O)C(=O)Nc1c([N+](=O)[O-])cc(Cl)cc1C(F)(F)F
24 | 219 °C | CN(C(=O)CN(C(=O)CNC(=O)Nc1cccc(/C=N/O)c1)c1ccccc1)c1ccccc1
25 | 170 °C | O=c1nc(-c2ccccn2)sc2ccc(OCCCc3ccccc3)cc12
26 | 103 °C | COc1ccc(OC)c([Si](C)(C)COc2cc(C(C)(C)C)c(O)c(C(C)(C)C)c2)c1
27 | 44 to 47 °C | COC(=O)C#CC(=O)c1ccc(C)cc1
28 | 202 to 203 °C | CC1CN(CC(=O)c2ccccc2)c2nc(-c3ccncc3)cc(=O)n2C1 (stereo unspecified)
29 | 204 to 206 °C | CC(=C1SC(=O)NC1=O)c1ccc(OCCOc2c(-c3ccc(F)c(F)c3)n(C)c3ccccc3c2=O)c(F)c1
30 | 131 to 132 °C | COC(=O)c1cc(-c2ccc(OC)c(F)c2)nn(CC=Cc2ccc(Cl)cc2)c1=O
31 | 111 °C | CCc1cn2ccccc2c1S(=O)(=O)c1ccc(OCCCCBr)cc1
32 | 190 to 191 °C | O=C(O)CCC(CCNCCc1ccccc1)n1nc(Cc2ccc(F)cc2)c2ccccc2c1=O (stereo unspecified)
33 | 107 to 109 °C | CCOC(=O)C1=CC(C)C2=c3c1cccc3=C1N=NC=C12 (stereo unspecified)
34 | 134 to 136 °C | CC(C)n1nc(-c2sc(NC(=O)c3ccc(CNCCN4CCCCC4)cc3)nc2-c2ccccc2)ccc1=O
35 | 206 °C | CS(=O)(=O)C(C#N)=Cc1c(Cl)n(Cc2ccccc2)c2ccccc12
36 | 205 to 207 °C | CCn1nc(-c2cccc(F)c2)c(C(C)=O)c(Nc2cccc3ncccc23)c1=O
37 | 252 to 254 °C | O=[N+]([O-])c1ccc(C=Cc2nc(Cl)c3ccccc3n2)o1
38 | 129 to 131 °C | COCc1c(S(C)(=O)=O)ccc(C(=O)O)c1C

Row | melting point | Structure (SMILES)
39 | 114 °C | CCC(=N)Nc1ccccc1N1CCOCC1
40 | 178 to 179 °C | CN(CCCNc1ncc(Cc2ccc(Br)cc2)c(=O)[nH]1)c1ccccn1
41 | 109 to 112 °C | OCCNC(=S)NC(Cc1cccs1)c1ccccc1 (stereo unspecified)
42 | 220 to 226 °C | CC(C)(C)NC(=O)[C@@H]1CCCC[C@H]1C[C@@H](O)[C@H](Cc1ccccc1)NC(=O)[C@H](CC(N)=O)NC(=O)c1cc(Cl)cc(Cl)c1
43 | 170 to 172 °C | Cc1oc(-c2ccccc2)nc1CCOc1ccc(C[C@@H](C(=O)O)N2CCN(S(=O)(=O)c3ccccc3F)CC2)cc1
44 | 95 to 97 °C | Cc1oc2c(C)c(C)c(NCc3ccc(F)cc3)c(C)c2c1-c1ccc(C(C)C)cc1
45 | 218 to 220 °C | COc1cc(OC)c(-c2cc3ccccc3[nH]2)cc1C=CC(=O)c1ccc(S(=O)(=O)NC(C)=O)cc1
46 | 214 to 215 °C | CC(=N)Nc1cccc(CNO)c1
47 | 168 to 170 °C | COc1ccc2sc(=O)[nH]c2c1
48 | 178 to 181 °C | CC[C@H](C)[C@H](NC(=O)/C=C1/c2ccccc2C(=S)N[C@H]1[C@@H](C)CC)C(=O)N[C@H](C(=O)OC)[C@@H](C)CC
49 | 65 to 67 °C | COC(=O)C(Cc1ccccc1)Cc1ccc(OCCn2c(=O)sc3cc(C(=O)c4ccccc4)ccc32)cc1 (stereo unspecified)
50 | 137 to 138 °C | CCOc1ccccc1C1CN=C(NC(=O)OC)N1C (stereo unspecified)
51 | 74 °C | COC(=S)OC(C(=O)OC(c1ccccc1)c1ccccc1)c1ccccc1 (stereo unspecified)
52 | 113 to 114 °C | COc1ccc(-c2c(Cl)c(CN3CCCCC3=O)nc3sc4c(c23)CCN(Cc2ccccc2)C4)cc1OC
53 | 134 to 136 °C | CCCC#Cc1ccnc2c1c(C(C)=O)cn2S(=O)(=O)c1ccccc1
54 | 187 to 189 °C | CC(=O)SCC(Cc1ccccc1)C(=O)Nc1ccc(C)c(C(=O)O)c1C (stereo unspecified)
55 | 188 to 190 °C | Cc1ccc(S(=O)(=O)N2CCn3c(c(C(N)=O)c(Cl)c3-c3ccccc3)C2)cc1
56 | 65 to 66 °C | CC(=O)C(C)(C)Nc1ccccc1

More lines, now with the values behind:

Row | Structure (SMILES) | melting point
57 | Nc1cccc2nccnc12 | 87 to 90 °C
58 | Cc1noc(NC(=O)N2CCN(c3nccc(-c4cc(F)ccc4F)n3)CC2)c1C | 218 to 219 °C
59 | COc1nc2cc(Cl)c(Cl)c(CSC)c2nc1OC | 143 to 145 °C
60 | Cc1c(NC(=O)c2ccc(-c3ccc4c(c3)CCO4)cc2F)ccc2cc(CN3CCCC3)cnc12 | 181 to 182 °C
61 | Nc1c(C(O)(C(F)(F)F)C(F)(F)F)ccc2cc(O)ccc12 | 160 to 161 °C
62 | CCC(=O)c1cnccn1 | 46 to 47 °C
63 | O=C1CC(=O)NC(c2ccc(Cl)cc2)=N1 | 120 to 121 °C
64 | CC(C)(C)OC(=O)N1C[C@@H](C=O)CC1=O | 120 to 122 °C
65 | COC1(c2cc(F)cc(OCc3nc(-c4ccccc4)c(-c4ccc(S(N)(=O)=O)cc4)o3)c2)CCOCC1 | 70 to 80 °C
66 | CCCCCCc1ccc(-c2ccc(-c3ncc(C(N)=O)cn3)cc2)cc1 | > 260 °C
67 | CCN1CCN(c2cc3c(cc2Cl)c(=O)c(C(=O)O)cn3CC)CC1 | 245 to 248 °C
68 | Clc1cc2c(s1)-n1c(nnc1CN1CCOCC1)CN=C2c1ccccc1Cl | 224 to 226 °C
69 | O=Cc1ccc(OCc2cn(C(c3ccccc3)(c3ccccc3)c3ccccc3)cn2)cc1 | 181 to 182 °C
70 | COc1ccc(-n2nc(Br)cc2-c2ccc(SC)cc2)cc1 | 144 to 145 °C
71 | O=C1CCCCN1[C@@H]1c2cc(C(F)(F)C(F)(F)C(F)(F)F)ccc2OC(CF)(CF)[C@H]1O (relative stereo) | 156 to 157 °C
72 | CCOC(c1ccc(Cl)c2nc3n(c12)CCCN3c1ccc(OC)nc1C)C(F)(F)F (stereo unspecified) | 168 to 170 °C
73 | O=C(O)COc1ccc2c(c1)OCO2 | 149 to 151 °C
74 | COc1ccc(N2C(=O)[C@H](O)[C@@H]2CC2CCCCC2)cc1 | 152 to 155 °C
75 | CNc1nc(-c2cccc(-c3ccc4nccn4c3)c2)c2cc(OC)c(OC)cc2n1 | 237 to 239 °C
76 | CN(Cc1ccc2nsnc2c1)C1CCN(C(=O)c2ccc(Nc3nccc(Nc4ccc(F)cc4)n3)cc2)CC1 | 191 to 192 °C

Row | Structure (SMILES) | melting point
77 | COc1cccc(-c2c3c(cc4ccc(O)cc24)-c2ccc(O)cc2CO3)c1 | 220 to 223 °C
78 | CCc1[nH]n(C2CCCC2)c2nc(-c3cccc(OCc4ccncc4)c3)nc(=O)c1-2 | 230 to 232 °C
79 | CC1(C)Oc2cc3nc(S)[nH]c3cc2O1 | > 300 °C
80 | CSCc1cc([N+](=O)[O-])ccc1N | 72 to 77 °C
81 | CC(C)(O)c1ccc(N2CCN(c3ccncc3)CC2)cc1 | 234 to 235 °C
82 | Cc1c(C(F)(F)F)n(C)c(=O)n(-c2ccc(Br)cc2F)c1=O | 129 to 131 °C
83 | c1ccc(C2CCN(c3nsc4ccccc34)CC2)cc1 | 175 to 177 °C
84 | Cc1c(-c2ncc(Cl)cc2F)nn(C)c1C#N | 144 to 146 °C
85 | COc1ccc2c(c1)N(CC#N)CCO2 | 73 to 74 °C
86 | COC(=O)c1cc2cc(C[C@@H](C)NC[C@H](O)c3cccc(Cl)c3)ccc2n1CC1CC1 | 135 to 137 °C
87 | N#Cc1c[nH]cc1-c1ccccc1 | 123 to 125 °C
88 | Clc1ccc(-c2cn3cc(Br)ccc3n2)cc1 | 210 to 211 °C
89 | CC(C)(C)OC(=O)N1CCC(c2ccc(Nc3nc4c(-c5cnn(-c6ccc(F)cc6)c5)cccn4n3)cc2)CC1 | 176 to 178 °C
90 | COc1ccc(C[C@H]2C3=C(CCCC3)CCN2C(C)=O)cc1 | 80 to 81.5 °C
91 | O=C1c2sc3ccccc3c2C(=O)c2sc3ccccc3c21 | 315 °C
92 | Cc1ccc(C)n1-c1ccc(F)c([N+](=O)[O-])c1 | 99 to 101 °C
93 | N#Cc1ccc(OCC(=O)O)cc1F | 150 to 152 °C
94 | COc1ccc(-n2nc(O)c3c(=O)c4ccc(Cl)cc4[nH]c3c2=O)cc1Cl | 395 to 396 °C
95 | COc1ccc(-c2cnn(-c3cccc(C)n3)c(=O)c2)cc1 | 167 to 168 °C
96 | CNc1c([N+](=O)[O-])cc2c(=O)c(C(=O)O)cn(-c3cc(N)c(F)cc3F)c2c1C | 275 to 281 °C
